Results from US12403121B2, “Anticancer rocaglamide derivatives” (priority 2018, dated 2025).

How the values were obtained:
STS26T cells = assay: Western blots of treated MPNST cells; assay type: cell-based, human; conditions: 1 or 2 IC50
Method: FIGS. 2A and 2B provide images showing that DDR and Roc increase caspase and PARP cleavage and elevated the levels of γH2AX while decreasing the expression of AKT and ERKs in MPNST cells. (A) Protein lysates prepared from STS26T cells treated for 3 days with 1 or 2 IC50 of DDR or Roc were analyzed by Western blots for the expression of various apoptosis-related proteins and mitogenic kinases AKT and ERK1/2. GAPDH served as a loading control. (B) Western blot analysis was performed on lysates from STS26T cells treated for 1 and 2 days with 1 or 2 IC50 of DDR for the expression of the DNA-damage response biomarker phosphorylated H2A.X (γH2A.X). As a positive control, lysates from HMS-97 human malignant schwannoma cells irradiated with 4 Grays (Gy) of X-ray were used.
Subconfluent cells were treated with the indicated doses of Roc or DDR for 24-72 hours and then harvested in cell lysis buffer (Cell Signaling Technology) containing 1 mM phenylmethylsufonylfluoride and protease inhibitor cocktail (Sigma-Aldrich). The protein content in cleared lysates was quantitated using the microBCA assay (ThermoFisher). Equal amounts of protein were run in sodium dodecyl sulfate-polyacrylamide gels and electrotransferred onto Immobilon-FL PVDF membranes (Millipore). The antibodies used were directed against: MDR1/ABCB1 (#13978), insulin-like growth factor-1 receptor β subunit (IGF-1Rβ; #9750), AKT (#9272), ERK1/2 (#4695), glyceraldehyde-3-phosphate dehydrogenase (GAPDH; #5174), caspase-3 (#9662), caspase-7 (#9492), cleaved caspase-7 (#9491), poly(ADP-ribose) polymerase (PARP; #9532), cleaved PARP (#5625), and phospho-histone H2A.X (pH2A.X[Ser′^39]; #9718; all from Cell Signaling Technology), NKX2.2 (sc-514161), LSD1 (sc-136174), and survivin (sc-17779; Santa Cruz Biotechnology), and FLI1 (ab15289) and cleaved caspase-3 (CC3; ab32042; Abeam). Protein bands were detected using IRDye® infrared fluorescent dye-labeled secondary antibodies and scanning on an Odyssey CLx imaging system (LI-COR Biosciences) using the appropriate fluorescent channel at a resolution of 84 μm.
To confirm induction of apoptosis in rocaglamide-treated MPNST cells, the inventors analyzed protein expression of several markers important for this process. […] A concomitant decrease in the amounts of intact caspases 3 and 7 and PARP was observed, consistent with the enhanced cleavage of these apoptotic markers and possibly due to direct effects of these rocaglamides on protein translation. Likewise, the levels of the pro-survival kinases AKT and ERK1/2 were diminished in rocaglamide-treated MPNST cells.

Ewing sarcoma PDX = Ewing sarcoma PDX model (NCH-EWS-2); assay type: in vivo, NSG mouse; conditions: 3 mg/kg IP every other day, four weeks, vs vehicle
Text: (§1) To generate PDX models, the Nationwide Children's Hospital Institutional Review Board approved the Human Subjects Protocol for the acquisition of surgically-removed tumor specimens from patients and informed patient consents were obtained. Shortly after resection, fresh tumor tissues with their histological types confirmed by a specialized pathologist were placed in Dulbecco's-modified Eagle (DME) medium (Invitrogen) and brought to the research laboratory. A piece of tumor fragment was implanted subcutaneously on the dorsal right flank area in an eight-to-ten week-old immunodeficient mouse under anesthesia. Tumors were allowed to grow until established, at which time the established PDX tumors were repeatedly passed from one animal to the next or cryopreserved. For Roc treatment, actively-growing PDXs for a Ewing sarcoma (NCH-EWS-2), an osteosarcoma (NCH—OS-7), and an alveolar rhabdomyosarcoma (NCH-ARMS-2) were excised and cut into 5-mm pieces. Each tumor piece was re-implanted into an NSG mouse and tumor growth was monitored. Once noted, the tumor sizes in the axial plane at its greatest dimension (L) and the orthogonal short dimension (S) were measured twice weekly using a Fowler Ultra-Cal Electronic Caliper. Approximated tumor volumes were calculated using the formula V=(L×S^2)/2. […]

rhabdomyosarcoma PDX = assay: Alveolar rhabdomyosarcoma PDX model (NCH-ARMS-2); assay type: in vivo, NSG mouse; conditions: 3 mg/kg IP every other day
Text: as §1

[1] = Kinghorn et al. 2016 and NCI Developmental Therapeutics Program study, same conditions; cited from earlier work

## COc1ccc([C@@]23Oc4cc(OC)cc(OC)c4[C@]2(O)[C@H](O)[C@H](C(=O)N(C)C)[C@H]3c2ccccc2)cc1 [Roc, rocaglamide]
STS26T cells; STS26T MPNST cells
  levels of γH2AX: elevated
STS26T cells; STS26T cells, 3 days
  cleavage of caspases 3 and 7 and PARP: increased cleavage
  expression of AKT and ERKs: decreasing
Ewing sarcoma PDX
  tumor growth inhibition: ~90%
Rhabdomyosarcoma PDX
  reduction of tumor growth: ~70%
[1]
  pulmonary toxicity in dogs: did not induce the toxicity
